The text below walks through data of ChEMBL document CHEMBL5370634, “Synthesis and Antifungal Evaluation of New Azole Derivatives against Candida albicans” (ACS Med Chem Lett, 2023).

Converted amounts (≈) assume the structure as drawn. Bounds are passed on as bounds.

Assay [1] concerns Candida albicans. In words: Antifungal activity against Candida albicans SC5314FR assessed as fractional inhibitory concentration index incubated for 24 hrs in presence of fluconazole by microdilution method. It counts as functional.
The test system of assay [2] is Candida albicans. The assay is described as follows: Antifungal activity against Candida albicans SC5314 assessed as fractional inhibitory concentration index incubated for 24 hrs in presence of fluconazole by microdilution method. It counts as functional. On the technique in general: Broth dilution looks for growth in wells or tubes with falling amounts of substance.

Assay [3] relates to Candida albicans. In words: Antifungal activity against Candida albicans SC5314 incubated for 24 hrs by microdilution method. It counts as functional.
The test system of assay [4] is Candida albicans. In words: Antifungal activity against Candida albicans SC5314 incubated for 24 hrs in presence of fluconazole by microdilution method. It counts as functional.
Assay [5] concerns Candida albicans. The assay is described as follows: Antifungal activity against Candida albicans SC5314FR incubated for 24 hrs by microdilution method. It counts as functional.
Assay [6] has as its system Candida albicans. The assay is described as follows: Antifungal activity against Candida albicans SC5314FR incubated for 24 hrs in presence of fluconazole by microdilution method. It counts as functional, SC5314.

Take `CC(=O)N1CCN(c2ccc(OCCN(Cc3ccc(F)c(F)c3)CC(O)(Cn3cncn3)c3ccc(F)cc3F)cc2)CC1` (stereo not given): the “fractional inhibitory concentration index (FICI)” value in the assay with Candida albicans [1] was determined as 2; in the assay on Candida albicans [2], 4.61. Besides, the MIC50 (as a rule, an inhibitory concentration at the 50% level, which refers to growth in some studies and to a panel of isolates in others) in the assay with Candida albicans [3] was 4.31 µg/mL (≈ 6.88 µM); in the assay on Candida albicans [4] it was 5.85 µg/mL; with Candida albicans [5], above 200 µg/mL; in the assay on Candida albicans [6] it was above 200 µg/mL.
`CC(=O)N1CCN(c2ccc(OCCN(CC(O)(Cn3cncn3)c3ccc(F)cc3F)C(=O)c3ccc(C(F)(F)F)cc3)cc2)CC1` (stereo not given): the “fractional inhibitory concentration index (FICI)” value in the assay on Candida albicans [1] was 2; in the assay with Candida albicans [2], 2.03. In addition, the MIC50 is 17.9 µg/mL (≈ 26.6 µM) against Candida albicans [3], 3.32 µg/mL in the assay with Candida albicans [4], above 200 µg/mL in the assay on Candida albicans [5] and above 200 µg/mL in the assay on Candida albicans [6].
`CC(=O)N1CCN(c2ccc(OCCN(Cc3ccc(C(F)(F)F)cc3)CC(O)(Cn3cncn3)c3ccc(F)cc3F)cc2)CC1` (stereo not given): the “fractional inhibitory concentration index (FICI)” value with Candida albicans [1] stood at 2; in the assay with Candida albicans [2] it was 1.94. For the same molecule, the MIC50 with Candida albicans [3] was 1.83 µg/mL (≈ 2.78 µM); with Candida albicans [4] it was 1.76 µg/mL; in the assay with Candida albicans [5], above 200 µg/mL; in the assay with Candida albicans [6] it was above 200 µg/mL.
Regarding `CC(=O)N1CCN(c2ccc(OCCN(CC(O)(Cn3cncn3)c3ccc(F)cc3F)S(=O)(=O)c3ccc(F)cc3)cc2)CC1` (stereo not given), the figures for the “fractional inhibitory concentration index (FICI)” value in the assay with Candida albicans [1] and in the assay on Candida albicans [2] were 2 and 1.69, respectively. Further, the MIC50 is 0.1 µg/mL (≈ 0.152 µM) with Candida albicans [3], 0.16 µg/mL with Candida albicans [4], above 200 µg/mL against Candida albicans [5] and above 200 µg/mL in the assay on Candida albicans [6].
Take `COc1ccc(S(=O)(=O)N(CCOc2ccc(N3CCN(C(C)=O)CC3)cc2)CC(O)(Cn2cncn2)c2ccc(F)cc2F)cc1` (stereo not given): the “fractional inhibitory concentration index (FICI)” value with Candida albicans [1] is 2; with Candida albicans [2], 0.5. In addition, the MIC50 in the assay with Candida albicans [3] was 7.27 µg/mL (≈ 10.8 µM); in the assay on Candida albicans [4], 0.72 µg/mL; against Candida albicans [5] it was above 200 µg/mL; with Candida albicans [6], above 200 µg/mL.
Regarding `CC(=O)N1CCN(c2ccc(OCCN(CC(O)(Cn3cncn3)c3ccc(F)cc3F)C(=O)c3c(Cl)cccc3Cl)cc2)CC1` (stereo not given), the entries for the “fractional inhibitory concentration index (FICI)” value in the assay on Candida albicans [1] and in the assay on Candida albicans [2] were 2 and 0.4, respectively. For the same molecule, the MIC50 was 6.25 µg/mL (≈ 9.28 µM) against Candida albicans [3], 0.56 µg/mL with Candida albicans [4], above 200 µg/mL against Candida albicans [5] and above 200 µg/mL with Candida albicans [6].
For `C#CCN(CCOc1ccc(N2CCN(C(C)=O)CC2)cc1)CC(O)(Cn1cncn1)c1ccc(F)cc1F` (stereo not given), the “fractional inhibitory concentration index (FICI)” value with Candida albicans [1] turned out to be 2; with Candida albicans [2], 2.27. The MIC50 with Candida albicans [3] was 9.31 µg/mL (≈ 17.3 µM); with Candida albicans [4] it was 3.42 µg/mL; in the assay with Candida albicans [5], above 200 µg/mL; in the assay with Candida albicans [6], above 200 µg/mL.
Regarding `CC(=O)N1CCN(c2ccc(OCCN(CC(O)(Cn3cncn3)c3ccc(F)cc3F)C(=O)c3ccccc3Cl)cc2)CC1` (stereo not given), the “fractional inhibitory concentration index (FICI)” value in the assay on Candida albicans [1] was 2; with Candida albicans [2], 1.61. The MIC50 against Candida albicans [3] was 11.3 µg/mL (≈ 17.8 µM); with Candida albicans [4] it was 2.5 µg/mL; in the assay on Candida albicans [5], above 200 µg/mL; in the assay on Candida albicans [6], above 200 µg/mL.
As for `CC(=O)N1CCN(c2ccc(OCCN(CC(O)(Cn3cncn3)c3ccc(F)cc3F)C(=O)CCCl)cc2)CC1` (stereo not given), the “fractional inhibitory concentration index (FICI)” value in the assay with Candida albicans [1] was found to be 0.95; in the assay on Candida albicans [2] it was 1.11. Also, the MIC50 is 19.4 µg/mL (≈ 32.9 µM) in the assay on Candida albicans [3], 1.83 µg/mL in the assay with Candida albicans [4], above 200 µg/mL in the assay on Candida albicans [5] and 190 µg/mL in the assay with Candida albicans [6].
Take `CC(=O)N1CCN(c2ccc(OCCN(Cc3ccc(C#N)cc3)CC(O)(Cn3cncn3)c3ccc(F)cc3F)cc2)CC1` (stereo not given): the “fractional inhibitory concentration index (FICI)” value in the assay on Candida albicans [1] amounted to 2; in the assay with Candida albicans [2], 1.08. The MIC50 against Candida albicans [3] was 0.99 µg/mL (≈ 1.61 µM); with Candida albicans [4], 0.68 µg/mL; against Candida albicans [5], above 200 µg/mL; in the assay with Candida albicans [6], above 200 µg/mL.
